Reference: paper PMC6459958, “NEP-TC a rRNA Methyltransferase Involved on Somatic Embryogenesis of Tamarillo (Solanum betaceum Cav.)” (Frontiers in Plant Science, 2019)

Molecular target: NEP-TC (Solanum betaceum, UniProt I1W0V3)
Test: coupled colorimetric SAM methyltransferase assay (SAH production, […] nm)
Type: biochemical
Conditions: methyl donor; co-substrate rRNA or total RNA from non-embryogenic calli

NEP-TC, sequence (I1W0V3 1-221): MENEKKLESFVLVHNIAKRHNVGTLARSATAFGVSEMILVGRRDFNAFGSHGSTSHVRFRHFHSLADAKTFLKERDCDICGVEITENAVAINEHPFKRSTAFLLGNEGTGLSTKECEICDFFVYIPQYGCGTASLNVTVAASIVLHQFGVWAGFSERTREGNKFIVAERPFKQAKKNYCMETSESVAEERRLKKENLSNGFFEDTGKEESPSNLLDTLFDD

C[S+](CC[C@H](N)C(=O)O)C[C@H]1O[C@@H](n2cnc3c(N)ncnc32)[C@H](O)[C@@H]1O (stereo partly shown) [SAM]
coupled colorimetric SAM methyltransferase assay (SAH production, 510 nm): production of SAH in SAM-dependent methylation reactions
